According to patent publication US20210275503A1, “TARGETING HOMOLOGOUS RECOMBINATION: A NEW SYTHETIC LETHAL THERAPEUTIC PARADIGM” (Cyteir Therapeutics, Inc., priority 2020, published 2021):
Entries after “also recorded” stand apart in the source; their conditions may differ.

Tests used:
[1] = Food effect pharmacokinetics, 90 mg QD, cycle 1 day 1; type: in vivo, human; settings: for Cmax / AUC(0-t) / Tmax: human, in vivo, oral, 90 mg, 90 mg QD, cycle 1 day 1; for Cmax / AUC(0-t): Mean ± SD; for AUC(0-t): read-out: AUC0-24; for Tmax: median (min, max)
Procedure: The food effect was evaluated with a 90 mg QD dosage during cycle 1 at day 1 (Table 2; FIG. 3).

[2] = Compound 67A pharmacokinetics in human subjects; type: in vivo; settings: for Cmax / Tmax / AUC(0-t): in vivo, human subjects
Procedure: Compound 67A pharmacokinetics were analyzed in human subjects (Table 1, FIGS. 2A-2B)

[3] = Phase 1/2 monotherapy: safety and tolerability; type: in vivo; settings: 23 subjects
From the text: (§1) Dose escalation studies comprised of subjects with B-cell non-Hodgkin's lymphoma, chronic lymphocytic leukemia, multiple myeloma, breast cancer, head and neck cancer, soft tissue sarcoma, and ovarian cancer. Backfill studies comprised of subjects with diffuse large b-cell lymphoma (DLBCL), B-cell malignancies, pancreatic cancer, small-cell lung cancer, and HPV+HNSCC. Dosage for the Phase 1/2 monotherapy study is seen in FIG. 4.

[4] = test system: advanced hematologic and solid tumors; experiment: Phase 1/2 monotherapy: clinical efficacy (Lugano, RECIST v1.1); type: in vivo, human; settings: for time on treatment: treatment ongoing
Procedure: as §1, with “Compound 67A was analyzed in hematological and solid tumors. Dose” for “Dose”
Subjects with advanced hematologic and solid tumors were treated with continuous 28-day cycles of increasing doses of Compound 67A with an accelerated titration and 3+3 trial design. As of Dec. […] Six subjects (26.1%) experienced a Compound 67A-related adverse event with only Grade 1/2 nausea (n=3, 13%) and constipation (n=2, 8.7%) occurring in >1 subject. There were no reported Compound 67A-related myelosuppression, serious adverse events, study discontinuation, or deaths.
Ten subjects were response evaluable prior to the data cut off.

[5] = subject with follicular lymphoma, 45 mg BID
[6] = subject with myxofibrosarcoma, 45 mg BID
[7] = subject with pancreatic cancer, 45 mg BID

With CC(C)OC(=O)Nc1ccc(-c2cnc([C@H]3CC[C@H](NC(=O)OC(C)C)CC3)s2)c(S(=O)(=O)NC(C)(C)C)c1 [Compound 67A] as the molecule, how does the “impact of food on drug exposure” value ([1]; 90 mg QD food-effect cohort) read?
Its value is “minimal impact of food on drug exposure”.

And the Cmax ([1]; Fasted Patients (n = 3))?
Its Cmax is 0.574 ± 0.304 µg/mL.

And the AUC(0-t) ([1]; Fasted Patients (n = 3))?
Its AUC(0-t) is 5.95 ± 2.9 µg·h/mL.

And the Tmax ([1]; Fasted Patients (n = 3))?
The Tmax was 4 h.

And the Cmax ([1]; Fed Patients (n = 3))?
Its Cmax is 0.458 ± 0.129 µg/mL.

And the AUC(0-t) ([1]; Fed Patients (n = 3))?
Its AUC(0-t) is 6.43 ± 1.83 µg·h/mL.

What about the Tmax ([1]; Fed Patients (n = 3)) of the same molecule?
The Tmax was 8 h.

And the Cmax ([2]; 15 mg BID)?
Its Cmax is 0.338 µg/mL.

And the Tmax ([2]; 15 mg BID)?
Its Tmax is 2 h.

What about the AUC(0-t) ([2]; 15 mg BID, AUC0-12) of the same molecule?
Its AUC(0-t) is 2.63 µg·h/mL.

And the Cmax ([2]; 20 mg BID)?
The Cmax was 0.67 µg/mL.

What about the Tmax ([2]; 20 mg BID) of the same molecule?
The Tmax was 2 h.

What about the AUC(0-t) ([2]; 20 mg BID, AUC0-12) of the same molecule?
The AUC(0-t) was 5.94 µg·h/mL.

What about the Cmax ([2]; 30 mg BID) of the same molecule?
Its Cmax is 1.21 µg/mL.

What about the Tmax ([2]; 30 mg BID) of the same molecule?
The Tmax was 2 h.

What about the AUC(0-t) ([2]; 30 mg BID, AUC0-12) of the same molecule?
The AUC(0-t) was 10.2 µg·h/mL.

And the AUC(0-t) ([2]; 45 mg BID, AUC0-12, mean ± SD, n = 2)?
The AUC(0-t) was 13.5 ± 8.27 µg·h/mL.

And the Cmax ([2]; 45 mg BID, mean ± SD)?
Its Cmax is 1.43 ± 0.362 µg/mL.

What about the Tmax ([2]; 45 mg BID, median (min, max)) of the same molecule?
Its Tmax is 1.5 h.

What about the AUC(0-t) ([2]; 90 mg QD, AUC0-8, mean ± SD) of the same molecule?
The AUC(0-t) was 11.5 ± 5.57 µg·h/mL.

What about the Cmax ([2]; 90 mg QD, mean ± SD) of the same molecule?
Its Cmax is 1.74 ± 0.93 µg/mL.

What about the Tmax ([2]; 90 mg QD, median (min, max)) of the same molecule?
The Tmax was 2.5 h.

And the AUC(0-t) ([2]; 130 mg QD, AUC0-8, mean ± SD)?
Its AUC(0-t) is 12.8 ± 3.98 µg·h/mL.

And the Cmax ([2]; 130 mg QD, mean ± SD)?
The Cmax was 1.8 ± 0.438 µg/mL.

And the Tmax ([2]; 130 mg QD, median (min, max))?
The Tmax was 2 h.

What about the AUC(0-t) ([2]; 200 mg QD, AUC0-8, mean ± SD) of the same molecule?
Its AUC(0-t) is 20.6 ± 12.2 µg·h/mL.

And the Cmax ([2]; 200 mg QD, mean ± SD)?
Its Cmax is 3.46 ± 2.47 µg/mL.

And the Tmax ([2]; 200 mg QD, median (min, max))?
Its Tmax is 3.75 h.

What about the “systemic exposure versus dose” value ([2]; preliminary pharmacokinetic analyses, Phase 1/2 subjects) of the same molecule?
Its value is “dose proportional systemic exposure”.

What about the “Compound 67A-related myelosuppression, serious adverse events, study discontinuation, or deaths” value [3] of the same molecule?
The value was “no reported”.

What about the dose-limiting toxicity ([3]; 6 cohorts (15, 20, 30, 45 mg BID; 90, 130 mg QD), 28-day cycles) of the same molecule?
The dose-limiting toxicity was “No subjects experienced a dose-limiting toxicity”.

And the “Grade 1/2 constipation (related adverse event)” value ([3]; n=2)?
The value was 8.7%.

And the “Grade 1/2 nausea (related adverse event)” value ([3]; n=3)?
Its value is 13%.

And the “subjects with a Compound 67A-related adverse event” value ([3]; six subjects)?
Its value is 26.1%.

And the “metabolic activity in non-target lesions” value ([4]; subject with DLBCL)?
Its value is “significant reduction in metabolic activity in non-target lesions”.

And the target lesions ([4]; subject with DLBCL)?
The target lesions was “near complete resolution of target lesions”.

And the response ([4]; subject with DLBCL, 45 mg BID)?
Its response is “partial responses; also recorded: confirmed partial response”.

And the tumor change ([4]; subject with DLBCL, 45 mg BID, Lugano)?
Its tumor change is −74%.

What about the time on treatment ([4]; subject with DLBCL, 45 mg BID) of the same molecule?
The time on treatment was at least 126 days.

And the decrease ([4]; subject with follicular lymphoma (45 mg BID), C3D1)?
The decrease was 42%.

And the decrease ([4]; subject with follicular lymphoma (45 mg BID), C5D1)?
Its decrease is 47%.

And the response ([4]; subject with follicular lymphoma (45 mg BID, escalated to 130 mg QD at C5D1), end of the sixth month)?
Its response is “unconfirmed partial response”.

And the response ([4]; subject with follicular lymphoma, 30 mg BID)?
Its response is “stable disease with evidence of clinical benefit”.

What about the decrease ([4]; subject with follicular lymphoma, 30 mg BID, C3D1) of the same molecule?
Its decrease is 27%.

And the “duration of stable disease” value [4, 5]?
The value was at least 99 days.

And the tumor change [4, 5]?
Its tumor change is −42%.

And the response ([4]; subject with follicular lymphoma, 45 mg BID, at data cut off)?
Its response is “stable disease with tumor shrinkage”.

And the overall decrease ([4]; subject with follicular lymphoma, C7D1, after escalation to 130 mg QD at C5D1)?
Its overall decrease is 67%.

And the response ([4]; subject with leiomyosarcoma)?
Its response is “stable disease”.

And the “change by RECIST” value ([4]; subject with leiomyosarcoma, six months)?
The value was 0%.

What about the decrease ([4]; subject with myxofibrosarcoma) of the same molecule?
Its decrease is 30%.

And the response [4, 6]?
The response was “partial responses; also recorded: unconfirmed partial response”.

What about the tumor change ([4]; subject with myxofibrosarcoma, 45 mg BID, RECIST v1.1) of the same molecule?
The tumor change was −30%.

What about the time on treatment [4, 6] of the same molecule?
Its time on treatment is at least 250 days.

And the response ([4]; subject with ovarian cancer)?
The response was “stable disease”.

What about the “decrease by RECIST v1.1” value ([4]; subject with ovarian cancer, two months) of the same molecule?
Its value is 29%.

And the “decrease by RECIST” value ([4]; subject with pancreatic cancer)?
The value was 19%.

What about the “drop in CA19-9” value ([4]; subject with pancreatic cancer) of the same molecule?
The value was at least 70%.

What about the “duration of stable disease” value [4, 7] of the same molecule?
The value was 111 days.

What about the response [4, 7] of the same molecule?
Its response is “stable disease with tumor shrinkage; also recorded: stable disease with evidence of clinical benefit”.

And the tumor change [4, 7]?
Its tumor change is −19%.
